Reference: ChEMBL document CHEMBL4725493, “Novel 2-Aryloxazoline Compounds Exhibit an Inhibitory Effect on Candida spp., Including Antifungal-Resistant Isolates” (ACS Med Chem Lett, 2020)
≈ marks a conversion by molar mass, not a printed value. Calls of active or inactive are those of the source. The calls are words filed in the database; no cut-off is given here.

What was measured:
Candida tropicalis = test: Antifungal activity against Candida tropicalis ATCC 200956 by CLSI standard M27 broth microdilution method; assay type: functional
Erythrocyte = test: Hemolytic activity in human RBC by spectrophotometry; assay type: ADME, cell-based
HepG2 = test: Cytotoxicity against human HepG2 cells assessed as reduction in cell viability by XTT assay; assay type: cell-based
[1] = Selectivity index, ratio of HA50 to human RCB to MIC of antifungal activity against Candida tropicalis ATCC 200956; assay type: toxicity; conditions: human red blood cells (RCB)
[2] = Selectivity index, ratio of CC50 of human HepG2 cells to MIC of antifungal activity against Candida tropicalis ATCC 200956; assay type: toxicity
[Candida] auris [3] = Antifungal activity against Candida auris CBS 10913 by CLSI standard M27 broth microdilution method; assay type: functional; conditions: Candidozyma auris
[Candida] auris [4] = Antifungal activity against Candida auris CBS 12766 by CLSI standard M27 broth microdilution method; assay type: functional; conditions: Candidozyma auris
Candida duobushaemulonii = test: Antifungal activity against Candida duobushaemulonis CBS 7799 by CLSI standard M27 broth microdilution method; assay type: functional; conditions: Candidozyma duobushaemuli
[5] = Antifungal activity against Candida pseudohaemulonis CBS 10004 by broth microdilution method; assay type: functional; conditions: Candidozyma pseudohaemuli
Aspergillus fumigatus = test: Antifungal activity against Aspergillus fumigatus ATCC 16913 by CLSI standard M38 broth microdilution method; assay type: functional, organism-based
Aspergillus niger = test: Antifungal activity against Aspergillus niger by CLSI standard M38 broth microdilution method; assay type: functional, organism-based
Cryptococcus neoformans = test: Fungicidal activity against Cryptococcus neoformans ATCC 208821 assessed as loss of fungal growth by CLSI method; assay type: functional, organism-based
Cryptococcus gattii = test: Fungicidal activity against Cryptococcus gattii ATCC 56990 assessed as loss of fungal growth by CLSI method; assay type: functional, organism-based; conditions: Cryptococcus bacillisporus

Structure (SMILES)	MIC (Candida tropicalis) [µg/mL]	Activity (Erythrocyte) [µg/mL]	CC50 (HepG2) [µg/mL]	selectivity ratio [1]	selectivity ratio [2]	MIC ([Candida] auris [3]) [µg/mL]	MIC ([Candida] auris [4]) [µg/mL]	MIC (Candida duobushaemulonii) [µg/mL]	MIC [5] [µg/mL]	inhibition (Aspergillus fumigatus)	inhibition (Aspergillus niger)	Activity (Cryptococcus neoformans)	Activity (Cryptococcus gattii)
C[C@@H]1OC(c2cc(Cl)c3ccccc3c2O)=N[C@@H]1C(=O)OC[C@H]1COC(C)(C)O1	≤ 0.03	> 128	7.2 (≈ 17.1 µM)	≥ 16	≥ 1	–	–	–	–	–	–	–	–
C#CCNC(=O)C1N=C(c2cc(Cl)c3ccccc3c2O)O[C@H]1C (single isomer, unassigned)	≤ 0.03	> 128	33 (≈ 96.3 µM)	≥ 512	≥ 132	–	–	–	–	–	–	–	–
C[C@@H]1OC(c2cc(Cl)c3ccccc3c2O)=N[C@@H]1C(=O)OC/C=C/c1ccccc1	≤ 0.03	> 128	10 (≈ 23.7 µM)	≥ 8	≥ 1	–	–	–	–	–	–	–	–
OC(Cn1cncn1)(Cn1cncn1)c1ccc(F)cc1F [FLUCONAZOLE]	1 (≈ 3.27 µM)	> 128	> 128	≥ 1	≥ 1	2 (≈ 6.53 µM)	> 0.064	> 64	16 (≈ 52.2 µM)	–	–	–	–
C[C@@H]1OC(c2cc(Cl)c3ccccc3c2O)=N[C@@H]1C(=O)OCc1ccccc1	0.06 (≈ 0.152 µM)	> 128	15 (≈ 37.9 µM)	≥ 64	8	–	–	–	–	–	–	–	–
COC(=O)[C@H]1N=C(c2ccc3ccccc3c2O)O[C@H]1C	0.06 (≈ 0.21 µM)	> 128	84 (≈ 294 µM)	≥ 8	5	–	–	–	–	–	–	–	–
C[C@H]1OC(c2ccc(Cl)cc2O)=N[C@H]1C(=O)OCc1ccccc1	≤ 0.03	> 128	95 (≈ 275 µM)	≥ 512	≥ 380	0.06 (≈ 0.174 µM)	2 (≈ 5.78 µM)	0.5 (≈ 1.45 µM)	0.25 (≈ 0.723 µM)	Active	Active	Active	Active
CCNC(=O)[C@H]1N=C(c2ccc3ccccc3c2O)O[C@H]1C	≤ 0.03	> 128	> 128	≥ 128	≥ 128	–	–	–	–	–	–	–	–
CCNC(=O)C1N=C(c2cc(Cl)c3ccccc3c2O)O[C@H]1C (single isomer, unassigned)	0.06 (≈ 0.18 µM)	> 128	–	≥ 128	≥ 128	–	–	–	–	–	–	–	–
C[C@H]1OC(c2ccccc2O)=N[C@H]1C(=O)OCc1ccccc1	≤ 0.03	> 128	102 (≈ 328 µM)	≥ 32	≥ 26	–	–	–	–	–	–	–	–
C[C@H]1OC(c2ccc(I)cc2O)=N[C@H]1C(=O)OCc1ccccc1	≤ 0.03	> 128	62 (≈ 142 µM)	≥ 128	≥ 62	–	–	–	–	–	–	–	–
CC[C@H](C)C[C@H](C)CCCCCCCCC(=O)N[C@H]1C[C@@H](O)[C@@H](NCCN)NC(=O)[C@@H]2[C@@H](O)CCN2C(=O)[C@H]([C@H](O)CCN)NC(=O)[C@H]([C@H](O)[C@@H](O)c2ccc(O)cc2)NC(=O)[C@@H]2C[C@@H](O)CN2C(=O)[C@H]([C@@H](C)O)NC1=O [CASPOFUNGIN]	≤ 0.03	–	32 (≈ 29.3 µM)	≥ 16	16	0.12 (≈ 0.11 µM)	0.25 (≈ 0.229 µM)	0.25 (≈ 0.229 µM)	0.5 (≈ 0.457 µM)	–	–	–	–
C[C@@H]1[C@H](O)[C@@H](C)/C=C/C=C/C=C/C=C/C=C/C=C/C=C/[C@H](O[C@@H]2O[C@H](C)[C@@H](O)[C@H](N)[C@@H]2O)C[C@@H]2O[C@](O)(C[C@@H](O)C[C@@H](O)[C@H](O)CC[C@@H](O)C[C@@H](O)CC(=O)O[C@H]1C)C[C@H](O)[C@H]2C(=O)O [AMPHOTERICIN B]	≤ 0.03	17	4 (≈ 4.33 µM)	≥ 68	≥ 16	0.5 (≈ 0.541 µM)	2 (≈ 2.16 µM)	4 (≈ 4.33 µM)	8 (≈ 8.66 µM)	–	–	–	–
C[C@H]1OC(c2cc(F)ccc2O)=N[C@H]1C(=O)OCc1ccccc1	≤ 0.03	> 128	> 128	≥ 128	≥ 128	–	–	–	–	–	–	–	–
C[C@@H]1OC(c2cc(Cl)c3ccccc3c2O)=NC1C(=O)Nc1ccc2ncsc2c1 (single isomer, unassigned)	≤ 0.03	> 128	16 (≈ 36.5 µM)	≥ 1070	≥ 133	0.06 (≈ 0.137 µM)	2 (≈ 4.57 µM)	0.06 (≈ 0.137 µM)	0.03 (≈ 0.0685 µM)	Active	Active	Active	Active
C[C@H]1OC(c2cc(I)ccc2O)=N[C@H]1C(=O)OCc1ccccc1	≤ 0.03	> 128	64 (≈ 146 µM)	≥ 128	≥ 64	–	–	–	–	–	–	–	–
COc1ccc(O)c(C2=N[C@@H](C(=O)OCc3ccccc3)[C@@H](C)O2)c1	≤ 0.03	> 128	100 (≈ 293 µM)	≥ 32	25	–	–	–	–	–	–	–	–
C[C@H]1OC(c2cc(Br)ccc2O)=N[C@H]1C(=O)OCc1ccccc1	≤ 0.03	> 128	88 (≈ 226 µM)	≥ 128	≥ 88	–	–	–	–	–	–	–	–
C[C@@H](O)[C@H](NC(=O)c1ccc2ccccc2c1O)C(=O)OCc1ccccc1	8 (≈ 21.1 µM)	> 128	40 (≈ 105 µM)	> 8	3	–	–	–	–	–	–	–	–
C[C@H]1OC(c2ccc(N=[N+]=[N-])cc2O)=N[C@H]1C(=O)OCc1ccccc1	≤ 0.03	> 128	100 (≈ 284 µM)	≥ 128	≥ 100	–	–	–	–	–	–	–	–
C[C@@H]1OC(c2cc(Cl)c3ccccc3c2O)=NC1C(=O)OCc1ccoc1 (single isomer, unassigned)	≤ 0.03	> 128	6 (≈ 15.6 µM)	≥ 32	≥ 2	–	–	–	–	–	–	–	–
C[C@H]1OC(c2ccc(Br)cc2O)=N[C@H]1C(=O)OCc1ccccc1	0.06 (≈ 0.154 µM)	> 128	62 (≈ 159 µM)	≥ 128	62	–	–	–	–	–	–	–	–
COC(=O)C1N=C(c2cc(Cl)c3ccccc3c2O)O[C@H]1C (single isomer, unassigned)	0.25 (≈ 0.782 µM)	> 128	11 (≈ 34.4 µM)	≥ 16	1	–	–	–	–	–	–	–	–
COc1cccc(O)c1C1=N[C@@H](C(=O)OCc2ccccc2)[C@@H](C)O1	0.12 (≈ 0.352 µM)	> 128	101 (≈ 296 µM)	≥ 8	6	–	–	–	–	–	–	–	–
C[C@@H]1OC(c2cc(Br)c3ccccc3c2O)=N[C@@H]1C(=O)OCc1ccccc1 (single isomer, unassigned)	≤ 0.03	> 128	9 (≈ 20.4 µM)	≥ 256	≥ 18	–	–	–	–	–	–	–	–
C[C@@H]1OC(c2cc(Cl)c3ccccc3c2O)=NC1C(=O)Nc1ccccc1NC(=O)[C@@H]1N=C(c2cc(Cl)c3ccccc3c2O)O[C@@H]1C (single isomer, unassigned)	≤ 0.03	> 128	90 (≈ 132 µM)	≥ 32	≥ 23	–	–	–	–	–	–	–	–
C=CCOC(=O)C1N=C(c2cc(Cl)c3ccccc3c2O)O[C@H]1C (single isomer, unassigned)	≤ 0.03	> 128	11 (≈ 31.8 µM)	≥ 128	≥ 11	–	–	–	–	–	–	–	–
C[C@@H]1OC(c2ccc3ccccc3c2O)=N[C@@H]1C(=O)OCc1ccccc1	≤ 0.03	> 128	88 (≈ 243 µM)	≥ 256	≥ 176	–	–	–	–	–	–	–	–
